Reference: EP0069448A1, “Fungicidal amide derivatives” (IMPERIAL CHEMICAL INDUSTRIES PLC, priority 1981, dated 1983)

Experiments:
Format in all cases: in vivo
[1] = test system: VENTURIA INAEQUALIS (APPLE); experiment: Foliar fungal disease test on plants (spray and root drench); settings: 100 ppm active ingredient; Venturia inaequalis named as an exception to the combined spray and soil application; applied one or two days before inoculation
Method: (§1) The compound of Example 1 was tested against a variety of foliar fungal diseases of plants. The technique employed was as follows:- The plants were grown in John Innes Potting Compost (No. 1 or 2) in 4 cm diameter minipots. A layer of fine sand was placed at the bottom of the pots containing the dicotyledonous plants to facilitate uptake of test compound by the roots. The test compound was formulated either by bead milling with aqueous Dispersol T or as a solution of acetone or acetone/ethanol which was diluted to the required concentration immediately before use. For the foliage diseases, suspensions (100 ppm active ingredient) were sprayed on to the […]. Exceptions to this were the tests on Botrytis cinerea, Plasmopara viticola and venturia inaequalis. The sprays were applied to maximum retention and the root drenches to a final concentration equivalent to approximately 40 ppm a.i./dry soil. Tween 20, to give a final concentration of 0.05%, was added when the sprays were applied to cereals. For most of the tests the compound was applied to the soil (roots) and the foliage (by spraying) one or two days before the plant was inoculated with the diseases. An exception was the test on Erysiphe graminis in which the plants were inoculated 24 hours before treatment. After inoculation, the plants were put into an appropriate environment to allow infection to take place and The disease control was recorded by the following grading:- [table]

[2] = test system: PUCCINIA RECONDITA (WHEAT); experiment: as above; settings: 100 ppm active ingredient spray, root drench approximately 40 ppm a.i./dry soil; applied one or two days before inoculation
Method: as §1

[3] = test system: CERCOSPORA ARACHIDICOLA (PEANUT); experiment: as above; settings: 100 ppm active ingredient spray, root drench approximately 40 ppm a.i./dry soil; applied one or two days before inoculation
Method: as §1

[4] = test system: ERYSIPHE GRAMINIS (BARLEY); experiment: as above; settings: 100 ppm active ingredient spray, root drench approximately 40 ppm a.i./dry soil; plants inoculated 24 hours before treatment
Method: as §1

[5] = test system: Candida albicans and Trichophyton mentagrophytes var. quinkeanum; experiment: Oral antifungal test in oestradiol-treated female mice inoculated vaginally and on the back; settings: 168 h, oral dosing twice on day 0 and once daily on days 1-4, skin lesions scored and vaginal samples cultured on day 7, read-out: minimum effective dose (MED)
Method: The following Monday (day 0) they are clipped on the back and then dosed orally with test compounds. They are then inoculated with Candida albicans in the vagina and Trichophyton mentagrophytes var. quinkeanum on the back, and then given a second dose of the same compound. Dosing is repeated once daily on days 1-4. On day 7 skin lesions are scored visually and vaginal samples taken for culture on agar. Groups of 5 mice are used and compounds are dosed initially at a level of 250mg./kg. The dose is then reduced sequentially until a minimum effective dose (MED) is found. The MED for 2,2-bis(4-chlorophenyl)-3-(1,2,4-triazol-1-yl)propionamide in this test was 5mg. per kg.

SMILES: NC(=O)C(Cn1cncn1)(c1ccc(Cl)cc1)c1ccc(Cl)cc1 [Example 1, 2,2-bis(4-chlorophenyl)-3-(1,2,4-triazol-1-yl)propionamide]
- disease control grading, VENTURIA INAEQUALIS (APPLE) [1]: 3
- disease control grading, PUCCINIA RECONDITA (WHEAT) [2]: 1
- disease control grading, CERCOSPORA ARACHIDICOLA (PEANUT) [3]: 2
- disease control grading, ERYSIPHE GRAMINIS (BARLEY) [4]: 4
- minimal effective dose [5]: 5 mg/kg
